IC50 data for 23 molecules are collected here from patent US20210395256A1, “TYROSINE KINASE INHIBITORS, COMPOSITIONS AND METHODS THERE OF” (Betta Pharmaceuticals Co., Ltd., priority 2018, published 2021).

The structures appear in SMILES notation.

Sequence of TrkA kinase (P04629 33-796): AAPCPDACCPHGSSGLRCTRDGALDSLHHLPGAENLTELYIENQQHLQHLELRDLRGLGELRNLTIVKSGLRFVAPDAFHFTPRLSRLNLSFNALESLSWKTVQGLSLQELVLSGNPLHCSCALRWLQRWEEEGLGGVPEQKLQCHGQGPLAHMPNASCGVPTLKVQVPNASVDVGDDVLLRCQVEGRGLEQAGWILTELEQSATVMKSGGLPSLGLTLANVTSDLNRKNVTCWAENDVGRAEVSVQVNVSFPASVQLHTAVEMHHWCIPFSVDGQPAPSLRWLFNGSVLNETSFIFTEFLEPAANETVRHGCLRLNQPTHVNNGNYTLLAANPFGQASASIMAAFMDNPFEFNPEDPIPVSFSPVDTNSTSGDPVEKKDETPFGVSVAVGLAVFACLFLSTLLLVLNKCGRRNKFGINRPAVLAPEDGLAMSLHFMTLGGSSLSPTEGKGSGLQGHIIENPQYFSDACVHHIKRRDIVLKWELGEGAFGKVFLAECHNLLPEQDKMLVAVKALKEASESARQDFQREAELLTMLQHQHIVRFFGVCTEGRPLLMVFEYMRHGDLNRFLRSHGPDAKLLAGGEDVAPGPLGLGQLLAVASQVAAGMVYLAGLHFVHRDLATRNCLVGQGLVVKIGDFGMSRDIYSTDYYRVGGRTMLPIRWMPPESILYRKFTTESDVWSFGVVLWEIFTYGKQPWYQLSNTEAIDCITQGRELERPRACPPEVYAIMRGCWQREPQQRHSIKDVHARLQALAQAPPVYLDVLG

In one test the target is TrkA kinase (Homo sapiens, UniProt P04629). Description: TrkA kinase assay (mobility shift assay). It is filed as biochemical. To be noted: class symbols; read-out: Trk A Kinase IC50. How it is done:
Example 201 TrkA Kinase Assay
Mobility shift assay was used to determine the inhibitory activity of compounds against TrkA kinase. Assay procedures are as follows:
1× Kinase base buffer (50 mM HEPES, pH 7.5; 0.0015% Brij-35)
Stop buffer (100 mM HEPES, pH 7.5; 0.015% Brij-35; 0.2% Coating Reagent #3; 50 mM EDTA)
1) Dilute the compound to 50× of the final desired highest inhibitor concentration in reaction by 100% DMSO. Transfer 100 μl of this compound dilution to a well in a 96-well plate.
2) For all compounds, transfer the compound in tubes to one well on 96-well storage plate and serially dilute the compound by transferring 30 μl to 60 μl of 100% DMSO in the next well and so forth for a total of 10 concentrations.
3) Add 100 μl of 100% DMSO to two empty wells for no compound control and no enzyme control in the same 96-well plate. Mark the plate as source plate.
4) Prepare intermediate plate
Transfer 10 μl of compound from source plate to a new 96-well plate as the intermediate plate
Add 90 µl of 1× kinase buffer to each well of the intermediate plate.
Mix the compounds in intermediate plate for 10 min on shaker.
1) Transfer 5 μl of each well from the 96-well intermediate plate to a 384-well plate in duplicates. For example, A1 of the 96-well plate is transferred to A1 and A2 of the 384-well plate. A2 of the 96-well plate is transferred to A3 and A4 of the 384-well plate, and so on.
1) Prepare 2.5× enzyme solution
Add kinase in 1× kinase base buffer.
2) Prepare 2.5× peptide solution Add FAM-labeled peptide and ATP in the 1× kinase base buffer.
3) Assay plate already contains 5 μl of compound in 10% DMSO.
4) Transfer 2.5× enzyme solution to the assay plate
Add 10 μl of 2.5× enzyme solution to each well of the 384-well assay plate.
5) Incubate at room temperature for 10 min.
6) Transfer 2.5× peptide solution to the assay plate
Add 10 μl of 2.5× peptide solution to each well of the 384-well assay plate.
Kinase reaction conditions are shown as Table 11:
7) Kinase reaction and stop
Incubate at 28° C. for specified period of time.
Add 25 μl of stop buffer to stop reaction.
1) Copy conversion data from Caliper program.
2) Convert conversion values to inhibition values.
Percent inhibition=(max-conversion)/(max-min)*100.
“max” stands for DMSO control; “min” stands for low control.
3) Fit the data in XLFit excel add-in version 5.4.0.8 to obtain IC50 values.
Equation used is: Y=Bottom+(Top-Bottom)/(1+(IC50/X)^HillSlope)
The term IC50 denotes the concentration at which inhibition is half-maximal. Take `COC(=O)c1c(F)ccc2nc(-c3cnn4ccc(N5CCC[C@@H]5c5cc(F)ccc5F)nc34)[nH]c12` [Compound 158, methyl (R)-2-(5-(2-(2,5-difluorophenyl)pyrrolidin-1-yl)pyrazolo[1,5-a]pyrimidin-3-yl)-6-fluoro-1H-benzo[d]imidazole-7-carboxylate]: the IC50 was ≤ 10 nM. In the case of `Cn1c(-c2cnn3ccc(N4CCC[C@@H]4c4cc(F)ccc4F)nc23)nc2cnccc21` [Compound 124, (R)-2-(5-(2-(2,5-difluorophenyl)pyrrolidin-1-yl)pyrazolo[1,5-a]pyrimidin-3-yl)-1-methyl-1H-imidazo[4,5-c]pyridine], the IC50 was in the range of 10 to 50 nM.

With `OC1CC[C@H](c2nnc(-c3cnn4ccc(N5CCC[C@@H]5c5cc(F)ccc5F)nc34)[nH]2)C1` (stereo partly drawn) [Compound 19, (3S)-3-(5-(5-((R)-2-(2,5-difluorophenyl)pyrrolidin-1-yl)pyrazolo[1,5-a]pyrimidin-3-yl)-4H-1,2,4-triazol-3-yl)cyclopentan-1-ol], the IC50 was ≤ 10 nM. Consider `N#Cc1cc2nc(-c3cnn4ccc(N5CCC[C@@H]5c5cc(F)ccc5F)nc34)[nH]c2cc1N1CC[C@H](O)C1` [Compound 164, 2-(5-((R)-2-(2,5-difluorophenyl)pyrrolidin-1-yl)pyrazolo[1,5-a]pyrimidin-3-yl)-6-((S)-3-hydroxypyrrolidin-1-yl)-1H-benzo[d]imidazole-5-carbonitrile], for which the half-maximal inhibitory concentration (IC50) is ≤ 10 nM. Consider `CC(O)c1cc2nc(-c3cnn4ccc(N5CCC[C@@H]5c5cc(F)ccc5F)nc34)oc2cc1F` (stereo partly drawn) [Compound 93, 1-(2-(5-((R)-2-(2,5-difluorophenyl)pyrrolidin-1-yl)pyrazolo[1,5-a]pyrimidin-3-yl)-6-fluorobenzo[d]oxazol-5-yl)ethan-1-ol], for which the IC50 was ≤ 10 nM.

Turning to `Fc1ccc(F)c([C@H]2CCCN2c2ccn3ncc(-c4nnc(-c5ccc6c(c5)OCC6)[nH]4)c3n2)c1` [Compound 61, (R)-5-(2-(2,5-difluorophenyl)pyrrolidin-1-yl)-3-(5-(2,3-dihydrobenzofuran-6-yl)-4H-1,2,4-triazol-3-yl)pyrazolo[1,5-a]pyrimidine], the IC50 is ≤ 10 nM. Same read-out and setting: the same measure for `COc1cc2nc(-c3cnn4ccc(N5CCC[C@@H]5c5cc(F)ccc5F)nc34)oc2cc1OC` [Compound 120, (R)-2-(5-(2-(2,5-difluorophenyl)pyrrolidin-1-yl)pyrazolo[1,5-a]pyrimidin-3-yl)-5,6-dimethoxybenzo[d]oxazole]: ≤ 10 nM.

In the case of `O[C@@H]1C[C@](O)(c2nnc(-c3cnn4ccc(N5CCC[C@@H]5c5cc(F)ccc5F)nc34)[nH]2)C[C@@H](O)[C@H]1O` [Compound 60, (1R,2S,3R,5S)-5-(5-(5-((R)-2-(2,5-difluorophenyl)pyrrolidin-1-yl)pyrazolo[1,5-a]pyrimidin-3-yl)-4H-1,2,4-triazol-3-yl)cyclohexane-1,2,3,5-tetraol], the IC50 lay in the range of 10 to 50 nM.

`COC(=O)c1cc2[nH]c(-c3cnn4ccc(N5CCC[C@@H]5c5cc(F)ccc5F)nc34)nc2cc1C#N` [Compound 152, methyl (R)-5-cyano-2-(5-(2-(2,5-difluorophenyl)pyrrolidin-1-yl)pyrazolo[1,5-a]pyrimidin-3-yl)-1H-benzo[d]imidazole-6-carboxylate]: the half-maximal inhibitory concentration (IC50) is ≤ 10 nM. Still for that read-out and setting: the figure for `Fc1ccc(F)c([C@H]2CCCN2c2ccn3ncc(-c4nc5ccc(N6CCN7CCC[C@@H]7C6)cc5[nH]4)c3n2)c1` [Compound 62, 5-((R)-2-(2,5-difluorophenyl)pyrrolidin-1-yl)-3-(6-((R)-hexahydropyrrolo[1,2-a]pyrazin-2(1H)-yl)-1H-benzo[d]imidazol-2-yl)pyrazolo[1,5-a]pyrimidine] is > 50 nM. The same measure, in the same setting: the figure for `O=C1NCCNc2cc3[nH]c(-c4cnn5ccc(N6CCC[C@@H]6c6cc(F)ccc6F)nc45)nc3cc21` [Compound 146, (R)-2-(5-(2-(2,5-difluorophenyl)pyrrolidin-1-yl)pyrazolo[1,5-a]pyrimidin-3-yl)-5,6,7,8-tetrahydroimidazo[4′,5′:4,5]benzo[1,2-e][1,4]diazepin-9(3H)-one] is ≤ 10 nM; for `NC(=O)N1CCc2nc(-c3cnn4ccc(N5CCC[C@@H]5c5cc(F)ccc5F)nc34)sc2C1` [Compound 191, (R)-2-(5-(2-(2,5-difluorophenyl)pyrrolidin-1-yl)pyrazolo[1,5-a]pyrimidin-3-yl)-6,7-dihydrothiazolo[5,4-c]pyridine-5(4H)-carboxamide] it is 10 to 50 nM. Still for that read-out and setting: the same measure for `Fc1ccc(F)c([C@H]2CCCN2c2ccn3ncc(-c4nnc(-c5ccc(N6CCOCC6)cc5)[nH]4)c3n2)c1` [Compound 1, (R)-4-(4-(5-(5-(2-(2,5-difluorophenyl)pyrrolidin-1-yl)pyrazolo[1,5-a]pyrimidin-3-yl)-4H-1,2,4-triazol-3-yl)phenyl)morpholine]: ≤ 10 nM.

The test is the same for the next values; noted with them: numeric values; read-out: Trk A Kinase IC50.
For the molecule `O[C@H]1CC[C@@H](c2nnc(-c3cnn4ccc(N5CCC[C@@H]5c5cc(F)ccc5F)nc34)[nH]2)CC1` [Compound 5, (1S,4s)-4-(5-(5-((R)-2-(2,5-difluorophenyl)pyrrolidin-1-yl)pyrazolo[1,5-a]pyrimidin-3-yl)-4H-1,2,4-triazol-3-yl)cyclohexan-1-ol], the IC50 was 1.8 nM. The same measure, in the same setting: the same measure for `COc1cc2[nH]c(-c3cnn4ccc(N5CCC[C@@H]5c5cc(F)ccc5F)nc34)nc2cc1C(=O)N(C)C` [Compound 161, (R)-2-(5-(2-(2,5-difluorophenyl)pyrrolidin-1-yl)pyrazolo[1,5-a]pyrimidin-3-yl)-6-methoxy-N,N-dimethyl-1H-benzo[d]imidazole-5-carboxamide]: 0.9 nM; for `Fc1ccc(F)c([C@H]2CCCN2c2ccn3ncc(-c4nc5ncc(C(F)(F)F)cc5[nH]4)c3n2)c1` [Compound 110, (R)-2-(5-(2-(2,5-difluorophenyl)pyrrolidin-1-yl)pyrazolo[1,5-a]pyrimidin-3-yl)-6-(trifluoromethyl)-1H-imidazo[4,5-b]pyridine]: 1.9 nM; for `Cc1nccc2nc(-c3cnn4ccc(N5CCC[C@@H]5c5cc(F)ccc5F)nc34)[nH]c12` [Compound 103, (R)-2-(5-(2-(2,5-difluorophenyl)pyrrolidin-1-yl)pyrazolo[1,5-a]pyrimidin-3-yl)-4-methyl-3H-imidazo[4,5-c]pyridine]: 1.2 nM. The same measure, in the same setting: the figure for `COc1cc2[nH]c(-c3cnn4ccc(N5CCC[C@@H]5c5ccccc5F)nc34)nc2cc1C#N` [Compound 195, (R)-2-(5-(2-(2-fluorophenyl)pyrrolidin-1-yl)pyrazolo[1,5-a]pyrimidin-3-yl)-6-methoxy-1H-benzo[d]imidazole-5-carbonitrile] is 2.3 nM; for `O[C@H](c1ccccc1)c1nnc(-c2cnn3ccc(N4CCC[C@@H]4c4cc(F)ccc4F)nc23)[nH]1` [Compound 42, (R)-(5-(5-((R)-2-(2,5-difluorophenyl)pyrrolidin-1-yl)pyrazolo[1,5-a]pyrimidin-3-yl)-4H-1,2,4-triazol-3-yl)(phenyl)methanol] it is 3.9 nM. Regarding `N#Cc1cc2[nH]c(-c3cnn4ccc(N5CCC[C@@H]5c5cc(F)ccc5F)nc34)nc2cc1C(F)(F)F` [Compound 157, (R)-2-(5-(2-(2,5-difluorophenyl)pyrrolidin-1-yl)pyrazolo[1,5-a]pyrimidin-3-yl)-5-(trifluoromethyl)-1H-benzo[d]imidazole-6-carbonitrile], the IC50 stood at 27 nM.

For `OB1OCc2ccc(-c3nnc(-c4cnn5ccc(N6CCC[C@@H]6c6cc(F)ccc6F)nc45)[nH]3)cc21` [Compound 45, (R)-6-(5-(5-(2-(2,5-difluorophenyl)pyrrolidin-1-yl)pyrazolo[1,5-a]pyrimidin-3-yl)-4H-1,2,4-triazol-3-yl)benzo[c][1,2]oxaborol-1(3H)-ol], the IC50 is 0.8 nM. In the case of `Fc1ccc(F)c([C@H]2CCCN2c2ccn3ncc(-c4nnc(C5COCCN5)[nH]4)c3n2)c1` (stereo partly drawn) [Compound 49, 3-(5-(5-((R)-2-(2,5-difluorophenyl)pyrrolidin-1-yl)pyrazolo[1,5-a]pyrimidin-3-yl)-4H-1,2,4-triazol-3-yl)morpholine], the IC50 is 6.4 nM. Take `Fc1ccc(F)c([C@H]2CCCN2c2ccn3ncc(-c4nnc(-c5ccc6nc[nH]c6c5)[nH]4)c3n2)c1` [Compound 57, (R)-3-(5-(1H-benzo[d]imidazol-6-yl)-4H-1,2,4-triazol-3-yl)-5-(2-(2,5-difluorophenyl)pyrrolidin-1-yl)pyrazolo[1,5-a]pyrimidine]: the IC50 came out at 0.6 nM.
